# Calls of active or inactive are those of the source.
# Tests used:
# [1] = biological target: T1, Nuclear receptor subfamily 0 group B member 1 (Homo sapiens, UniProt P51843); format: functional, cell-based;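 further: HEK293T cells transfected with SF-1 and DAX-1 plus StAR promoter luciferase reporter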
# T1 sequence (P51843 whole entry): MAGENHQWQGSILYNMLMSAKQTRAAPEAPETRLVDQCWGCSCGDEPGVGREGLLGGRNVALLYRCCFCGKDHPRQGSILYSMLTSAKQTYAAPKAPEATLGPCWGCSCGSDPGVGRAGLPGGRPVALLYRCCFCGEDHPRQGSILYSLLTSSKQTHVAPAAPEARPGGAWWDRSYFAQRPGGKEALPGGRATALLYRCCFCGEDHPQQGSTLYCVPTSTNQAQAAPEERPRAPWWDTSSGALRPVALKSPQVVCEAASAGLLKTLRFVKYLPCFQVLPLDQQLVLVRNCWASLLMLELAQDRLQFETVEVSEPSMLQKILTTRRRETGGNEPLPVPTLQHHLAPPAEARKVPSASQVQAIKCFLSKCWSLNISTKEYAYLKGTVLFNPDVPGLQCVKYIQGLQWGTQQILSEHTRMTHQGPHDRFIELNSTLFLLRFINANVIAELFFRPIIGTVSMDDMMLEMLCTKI
# [2] = cells; format: functional, cell-based
# [3] = biological target: Ras and Rab interactor 1/Tyrosine-protein kinase ABL1 (Homo sapiens, UniProt P00519+Q13671); format: functional;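 further: biochemical TR-FRET dose-response test measuring inhibition of binding between Rin1 and Abl proteins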
# [4] = biological target: T2, COUP transcription factor 2 (Homo sapiens, UniProt P24468); assay: Luminescence-based cell-based high throughput dose response assay to identify inhibitors of COUP-TFII (NR2F2).; format: functional;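 further: HEK293 cells transiently cotransfected with COUP-TFII expression vector and reporter; luciferase reporter luminescence driven by COUP-TFII from the pX2-168 reporter plasmid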
# T2 sequence (P24468 whole entry): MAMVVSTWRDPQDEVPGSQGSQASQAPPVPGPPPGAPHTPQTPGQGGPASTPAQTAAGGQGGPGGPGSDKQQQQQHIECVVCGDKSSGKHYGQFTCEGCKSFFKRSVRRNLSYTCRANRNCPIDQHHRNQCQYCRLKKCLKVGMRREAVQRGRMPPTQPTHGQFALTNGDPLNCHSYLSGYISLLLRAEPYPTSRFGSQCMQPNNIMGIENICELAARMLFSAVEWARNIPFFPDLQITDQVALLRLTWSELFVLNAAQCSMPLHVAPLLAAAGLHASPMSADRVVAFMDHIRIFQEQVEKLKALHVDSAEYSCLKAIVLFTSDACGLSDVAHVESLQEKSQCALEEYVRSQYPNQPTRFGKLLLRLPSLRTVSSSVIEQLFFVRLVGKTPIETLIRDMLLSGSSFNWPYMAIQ
# [5] = StAR promoter reporter inhibition counter-screen, dose response, counter-screen for LRH-1 inverse agonist project, cell-based, luminescence, luciferase reporter (AID 651969); format: functional
# [6] = biological target: Melanocortin receptor 4 (Homo sapiens, UniProt P32245); format: functional, cell-based;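 further: Cell-based assay with luminescence read-out, confirmatory dose-response testing for agonist activity of biased ligands at MC4R; human U2OS cells with tagged receptor and beta-arrestin; potency of agonists that increase receptor coupling to beta-arrestin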
# [7] = biological target: Steroidogenic factor 1 (Homo sapiens, UniProt Q13285); assay: Counterscreen for inverse agonists of the liver receptor homolog-1 (LRH-1; NR5A2): Luminescence-based cell-based high throughput dose response assay to identify inverse agonists of the Steroidogenic Factor 1 Nuclear Receptor (SF1; NR5A1).; format: functional
# [8] = biological target: Nuclear receptor subfamily 5 group A member 2 (Homo sapiens, UniProt O00482); format: functional, cell-based;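 further: HEK293T cells transfected with LRH-1 and a StAR promoter luciferase reporter; potency for inhibitors that lower LRH-1 driven reporter light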
# [9] = biological target: T3, Small ubiquitin-related modifier 1 (Homo sapiens, UniProt P63165); assay: inhibitors of SUMO1 peptide binding, dose response, biochemical, fluorescence polarization, uHTS hits (AID 624382); format: functional; conditions: read-out: IC50_Mean
# [10] = biological target: T3, Small ubiquitin-related modifier 1; assay: inhibitors of SUMO1 partner interactions, dose response, biochemical, FRET (AID 624383); format: functional; conditions: read-out: IC50_Mean
# [11] = biological target: T4, Small ubiquitin-related modifier 2 (Homo sapiens, UniProt P61956); assay: SUMO2–SIM peptide binding inhibitors, dose response, selectivity assay for SUMO1 interaction inhibitor project, biochemical, fluorescence polarization, uHTS hits (AID 624385); format: functional; conditions: read-out: IC50_Mean
# [12] = biological target: T4, Small ubiquitin-related modifier 2; assay: inhibitors of SUMO2 protein-protein interaction, dose response, selectivity assay for SUMO1 interaction inhibitor project, biochemical, FRET, human SUMO2, uHTS hits (AID 624384); format: functional; conditions: read-out: IC50_Mean
# T3 sequence (P63165 whole entry): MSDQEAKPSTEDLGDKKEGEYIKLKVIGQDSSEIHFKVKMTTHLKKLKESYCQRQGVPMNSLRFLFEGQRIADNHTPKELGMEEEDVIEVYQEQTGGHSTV
# Ras and Rab interactor 1/Tyrosine-protein kinase ABL1, sequence (P00519 whole entry): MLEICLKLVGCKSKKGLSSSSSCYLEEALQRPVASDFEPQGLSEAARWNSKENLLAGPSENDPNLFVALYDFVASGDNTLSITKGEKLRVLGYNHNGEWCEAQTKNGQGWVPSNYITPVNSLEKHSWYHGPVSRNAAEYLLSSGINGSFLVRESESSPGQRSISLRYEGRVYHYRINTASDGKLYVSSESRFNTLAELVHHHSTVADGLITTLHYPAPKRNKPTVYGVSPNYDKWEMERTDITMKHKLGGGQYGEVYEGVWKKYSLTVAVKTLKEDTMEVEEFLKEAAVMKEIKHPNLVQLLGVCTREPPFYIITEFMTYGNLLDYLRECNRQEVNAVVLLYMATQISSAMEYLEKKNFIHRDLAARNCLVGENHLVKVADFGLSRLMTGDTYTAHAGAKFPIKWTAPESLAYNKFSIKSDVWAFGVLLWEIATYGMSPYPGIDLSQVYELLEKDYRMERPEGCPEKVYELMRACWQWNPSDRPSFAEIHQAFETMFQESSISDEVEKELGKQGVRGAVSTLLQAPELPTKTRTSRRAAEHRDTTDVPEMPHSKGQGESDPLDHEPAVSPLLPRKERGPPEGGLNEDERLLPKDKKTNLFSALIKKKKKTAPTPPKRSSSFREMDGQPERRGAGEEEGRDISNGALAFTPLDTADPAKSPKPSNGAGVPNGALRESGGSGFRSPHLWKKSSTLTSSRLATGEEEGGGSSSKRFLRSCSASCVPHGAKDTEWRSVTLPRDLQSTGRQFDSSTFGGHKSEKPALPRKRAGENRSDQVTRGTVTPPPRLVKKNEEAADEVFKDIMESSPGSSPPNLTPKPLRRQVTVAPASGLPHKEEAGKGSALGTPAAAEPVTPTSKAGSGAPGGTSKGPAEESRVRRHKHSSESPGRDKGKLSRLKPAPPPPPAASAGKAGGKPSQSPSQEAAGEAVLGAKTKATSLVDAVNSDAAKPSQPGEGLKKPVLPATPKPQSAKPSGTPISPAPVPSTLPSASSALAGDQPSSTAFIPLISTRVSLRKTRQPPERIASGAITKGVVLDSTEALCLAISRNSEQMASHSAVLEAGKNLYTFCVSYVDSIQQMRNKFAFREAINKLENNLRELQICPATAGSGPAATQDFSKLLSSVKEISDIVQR
# Ras and Rab interactor 1/Tyrosine-protein kinase ABL1, sequence (Q13671 whole entry): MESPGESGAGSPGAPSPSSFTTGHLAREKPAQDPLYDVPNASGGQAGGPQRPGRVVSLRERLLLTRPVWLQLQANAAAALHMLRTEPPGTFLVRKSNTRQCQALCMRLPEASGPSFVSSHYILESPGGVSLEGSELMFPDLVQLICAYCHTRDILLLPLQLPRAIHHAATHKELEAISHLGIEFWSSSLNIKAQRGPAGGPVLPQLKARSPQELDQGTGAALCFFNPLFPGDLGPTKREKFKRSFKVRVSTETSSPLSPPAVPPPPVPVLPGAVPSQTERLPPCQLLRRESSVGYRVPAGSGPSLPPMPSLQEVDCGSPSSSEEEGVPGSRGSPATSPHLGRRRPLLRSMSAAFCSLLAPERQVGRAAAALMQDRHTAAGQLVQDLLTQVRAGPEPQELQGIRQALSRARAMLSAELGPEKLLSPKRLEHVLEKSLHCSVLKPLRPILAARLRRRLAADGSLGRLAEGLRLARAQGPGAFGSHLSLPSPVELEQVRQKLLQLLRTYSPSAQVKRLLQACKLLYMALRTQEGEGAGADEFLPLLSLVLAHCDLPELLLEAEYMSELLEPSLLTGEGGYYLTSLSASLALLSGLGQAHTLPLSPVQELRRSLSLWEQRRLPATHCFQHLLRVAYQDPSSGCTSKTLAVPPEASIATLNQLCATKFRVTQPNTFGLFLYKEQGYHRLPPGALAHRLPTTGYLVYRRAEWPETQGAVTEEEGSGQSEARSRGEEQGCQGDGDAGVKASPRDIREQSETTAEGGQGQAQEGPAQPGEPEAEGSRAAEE
# T4 sequence (P61956 whole entry): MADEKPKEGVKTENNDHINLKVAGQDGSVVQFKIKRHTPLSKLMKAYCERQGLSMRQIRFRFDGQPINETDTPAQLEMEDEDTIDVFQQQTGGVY
# Steroidogenic factor 1, sequence (Q13285 whole entry): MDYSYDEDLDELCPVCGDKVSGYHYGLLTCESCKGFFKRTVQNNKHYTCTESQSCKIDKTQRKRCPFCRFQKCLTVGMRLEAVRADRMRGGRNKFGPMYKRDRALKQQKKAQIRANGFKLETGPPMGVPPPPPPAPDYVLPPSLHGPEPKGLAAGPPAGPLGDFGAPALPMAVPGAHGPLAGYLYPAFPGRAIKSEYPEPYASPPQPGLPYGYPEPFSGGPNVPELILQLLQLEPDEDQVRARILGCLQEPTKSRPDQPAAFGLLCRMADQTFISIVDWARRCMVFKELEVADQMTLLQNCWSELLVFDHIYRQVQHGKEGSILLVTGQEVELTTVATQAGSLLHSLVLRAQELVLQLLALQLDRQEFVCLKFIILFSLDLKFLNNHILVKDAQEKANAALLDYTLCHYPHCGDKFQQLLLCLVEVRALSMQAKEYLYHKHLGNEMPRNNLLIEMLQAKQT
# Melanocortin receptor 4, sequence (P32245 whole entry): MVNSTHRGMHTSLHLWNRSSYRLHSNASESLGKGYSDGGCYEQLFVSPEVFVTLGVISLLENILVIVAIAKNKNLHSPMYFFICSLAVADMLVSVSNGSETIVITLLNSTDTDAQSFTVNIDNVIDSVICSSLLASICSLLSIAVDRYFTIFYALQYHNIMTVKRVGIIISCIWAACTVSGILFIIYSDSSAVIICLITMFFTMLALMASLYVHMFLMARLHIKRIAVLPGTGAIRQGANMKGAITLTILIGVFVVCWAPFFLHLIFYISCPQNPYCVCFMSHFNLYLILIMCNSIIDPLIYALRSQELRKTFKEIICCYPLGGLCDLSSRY
# Nuclear receptor subfamily 5 group A member 2, sequence (O00482 whole entry): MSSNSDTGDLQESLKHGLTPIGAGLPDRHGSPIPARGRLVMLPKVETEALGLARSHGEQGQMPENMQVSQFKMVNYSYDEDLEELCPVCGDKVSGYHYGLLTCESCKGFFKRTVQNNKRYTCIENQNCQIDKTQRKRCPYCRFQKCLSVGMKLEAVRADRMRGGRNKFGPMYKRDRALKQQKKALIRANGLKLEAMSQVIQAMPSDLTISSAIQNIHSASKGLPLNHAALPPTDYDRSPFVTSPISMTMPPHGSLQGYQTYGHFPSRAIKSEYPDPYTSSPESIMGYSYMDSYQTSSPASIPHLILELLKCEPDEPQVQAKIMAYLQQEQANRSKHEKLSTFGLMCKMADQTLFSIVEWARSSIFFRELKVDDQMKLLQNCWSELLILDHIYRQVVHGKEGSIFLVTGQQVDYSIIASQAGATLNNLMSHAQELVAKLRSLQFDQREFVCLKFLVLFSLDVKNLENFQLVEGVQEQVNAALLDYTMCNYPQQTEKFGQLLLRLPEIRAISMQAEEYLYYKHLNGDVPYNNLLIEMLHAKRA
compound,measurement,setting,value
O=c1oc2ccccc2cc1-c1nc2c(s1)CCCC2,IC50,[1],> 0.278 µM (active)
same,IC50,[2],> 67.5 µM (inactive)
CCCCc1nnc(NC(=O)c2ccc(OCc3c(C)noc3C)cc2)s1,IC50,[3],> 73.5 µM (inactive)
OC[C@@H]1CN(Cc2ccc(-c3ccccc3)cc2)C[C@H](n2cnc3c(NC4CCC4)ncnc32)O1,IC50,[4],8.62 µM (active)
same,IC50,[3],16.7 µM (inactive)
CC(=O)Nc1cc(-c2cccnc2)cn2c(-c3ccc(F)cc3)cnc12,IC50,[5],35.9 µM (inactive)
same,EC50,[6],> 89.2 µM (inactive)
same,IC50,[7],4.56 µM (active)
same,IC50,[8],22.3 µM (inactive)
C[C@H]([C@@H](O)[C@@H](O)[C@@H](C)C(C)(C)C)[C@H]1CC[C@H]2[C@@H]3CC[C@H]4C[C@H](OS(=O)(=O)O)[C@@H](OS(=O)(=O)O)C[C@]4(C)[C@H]3CC[C@]12C,IC50,[9],11 µM (active)
same,IC50,[10],22.5 µM (inactive)
same,IC50,[11],25.5 µM (inactive)
same,IC50,[12],16.3 µM (active)

# Reference: ChEMBL document CHEMBL1201862, “PubChem BioAssay data set” (2004)
